{"source": "ChEMBL document CHEMBL5050838", "about": "(2021)", "key": {"JIMT-1 [1]": {"test_system": "JIMT-1", "assay": "Induction of apoptosis in human JIMT-1 cells at high concentration assessed as change in cleaved PARP levels and measured by Western blot analysis", "format": "functional, cell-based", "conditions": "dose 100-5000 nM"}, "JIMT-1 [2]": {"test_system": "JIMT-1", "assay": "Antiproliferative activity against human JIMT-1 cells after 72 hrs by Cell Titer Glo assay", "format": "functional, cell-based", "conditions": "JIMT-1, 72 h"}, "JIMT-1 [3]": {"test_system": "JIMT-1", "assay": "Induction of apoptosis in human JIMT-1 cells at high concentration assessed as change in cleaved caspase-3 levels and measured by Western blot analysis", "format": "functional, cell-based", "conditions": "dose 100-5000 nM"}, "MDA-MB-436": {"test_system": "MDA-MB-436", "assay": "Antiproliferative activity against human MDA-MB-436 cells after 72 hrs by Cell Titer Glo assay", "format": "functional, cell-based", "conditions": "MDA-MB-436, 72 h"}, "JIMT-1 [4]": {"test_system": "JIMT-1", "assay": "Induction of mitotic arrest in human JIMT-1 cells at high concentration assessed as change in p-histone H3 levels and measured by Western blot analysis", "format": "functional, cell-based", "conditions": "dose 100-5000 nM"}, "BT-474": {"test_system": "BT-474", "assay": "Antiproliferative activity against T-DM1-resistant human BT-474 cells after 72 hrs by Cell Titer Glo assay", "format": "functional, cell-based", "conditions": "BT-474, 72 h"}, "MDA-MB-157": {"test_system": "MDA-MB-157", "assay": "Antiproliferative activity against human MDA-MB-157 cells after 72 hrs by Cell Titer Glo assay", "format": "functional, cell-based", "conditions": "MDA-MB-157, 72 h"}, "MCF-12A": {"test_system": "MCF-12A", "assay": "Antiproliferative activity against human MCF-12A cells after 72 hrs by Cell Titer Glo assay", "format": "functional, cell-based"}, "JIMT-1 [5]": {"test_system": "JIMT-1", "assay": "Induction of DNA damage in human JIMT-1 cells at high concentration assessed as change in p-H2AX levels and measured by Western blot analysis", "format": "functional, cell-based", "conditions": "dose 100-5000 nM"}, "[6]": {"assay": "Toxicity in human JIMT-1 cells xenografted female nude mouse assessed as effect on body weight at 25 mg/kg, po administered for every two days for 23 days", "format": "organism-based", "conditions": "in vivo, 552 h, time 23 day"}, "[7]": {"assay": "Toxicity in human JIMT-1 cells xenografted female nude mouse assessed as effect on body weight at 5 mg/kg, po administered for every two days for 30 days", "format": "organism-based", "conditions": "in vivo, 720 h, time 30 day"}, "[8]": {"assay": "Kinetic solubility in sodium phosphate buffer at pH 7.4 and at 25 degreeC after 2 hrs", "format": "physicochemical", "conditions": "read-out: Kinetic_solubility"}, "[9]": {"assay": "Plasma protein binding in human assessed as unbound fraction", "format": "ADME, cell-free"}, "JIMT-1 [10]": {"test_system": "JIMT-1", "assay": "Anticlonogenic activity against human JIMT-1 cells assessed as reduction number of cell colonies at 100 to 1000 nM measured after 12 days by crystal violet reagent based colony formation assay", "format": "functional", "conditions": "dose 100-1000 nM, time 12.0 day"}, "[11]": {"assay": "Apparent permeability of the compound across basolateral to apical side in human Caco-2 cells", "format": "ADME, cell-based"}, "JIMT-1 [12]": {"test_system": "JIMT-1", "assay": "Induction of apoptosis in human JIMT-1 cells assessed as change in cleaved PARP levels and measured by Western blot analysis", "format": "functional, cell-based", "conditions": "dose 100-5000 nM"}, "JIMT-1 [13]": {"test_system": "JIMT-1", "assay": "Inhibition of TACC3 expressed in human JIMT-1 cells at 1 uM and measured after 6 hrs by cellular thermal shift assay relative to control", "format": "cell-based"}, "JIMT-1 [14]": {"test_system": "JIMT-1", "assay": "Induction of mitotic arrest in human JIMT-1 cells assessed as change in p-histone H3 levels and measured by Western blot analysis", "format": "functional, cell-based", "conditions": "dose 100-5000 nM"}, "[15]": {"assay": "Intrinsic clearance in mouse liver microsomes", "format": "ADME, Microsome", "conditions": "read-out: CLH"}, "JIMT-1 [16]": {"test_system": "JIMT-1", "assay": "Induction of DNA damage in human JIMT-1 cells assessed as change in p-H2AX levels and measured by Western blot analysis", "format": "functional, cell-based", "conditions": "dose 100-5000 nM"}, "JIMT-1 [17]": {"test_system": "JIMT-1", "assay": "Antitumor activity against human JIMT-1 cells xenografted female nude mouse assessed as reduction in tumor growth at 5 mg/kg, po administered for every two days for 30 days", "format": "functional, organism-based", "conditions": "time 30.0 day"}, "[18]": {"assay": "Half-life in mouse liver microsomes", "format": "ADME, Microsome"}, "[19]": {"assay": "Half-life in human liver microsomes", "format": "ADME, Microsome"}, "JIMT-1 [20]": {"test_system": "JIMT-1", "assay": "Antitumor activity against human JIMT-1 cells xenografted female nude mouse assessed as reduction in tumor growth at 2 mg/kg, iv administered for every two days for 30 days", "format": "functional, organism-based", "conditions": "time 30.0 day"}, "JIMT-1 [21]": {"test_system": "JIMT-1", "assay": "Antitumor activity against human JIMT-1 cells xenografted female nude mouse assessed as reduction in tumor weight at 25 mg/kg, po administered for every two days for 23 days", "format": "functional, organism-based", "conditions": "time 23.0 day"}, "JIMT-1 [22]": {"test_system": "JIMT-1", "assay": "Antitumor activity against human JIMT-1 cells xenografted female nude mouse assessed as reduction in tumor growth at 25 mg/kg, po administered for every two days for 23 days", "format": "functional, organism-based", "conditions": "time 23.0 day"}, "[23]": {"assay": "Lipophilicity, log D of compound at pH 7.4 in octanol/phosphate buffer", "format": "physicochemical"}, "[24]": {"assay": "Intrinsic clearance in human liver microsomes", "format": "ADME, Microsome", "conditions": "read-out: CLH"}, "[25]": {"assay": "Plasma protein binding in human", "format": "ADME, cell-free"}, "JIMT-1 [26]": {"test_system": "JIMT-1", "assay": "Induction of apoptosis in human JIMT-1 cells assessed as change in cleaved caspase-3 levels and measured by Western blot analysis", "format": "functional, cell-based", "conditions": "dose 100-5000 nM"}, "[27]": {"assay": "Toxicity in human JIMT-1 cells xenografted female nude mouse assessed as effect on body weight at 2 mg/kg, iv administered for every two days for 30 days", "format": "organism-based", "conditions": "in vivo, 720 h, time 30 day"}, "[28]": {"assay": "Toxicity in human JIMT-1 cells xenografted female nude mouse assessed as effect on body weight at 2 mg/kg, po administered for every two days for 30 days", "format": "organism-based", "conditions": "in vivo, 720 h, time 30 day"}, "JIMT-1 [29]": {"test_system": "JIMT-1", "assay": "Antitumor activity against human JIMT-1 cells xenografted female nude mouse assessed as reduction in tumor growth at 2 mg/kg, po administered for every two days for 30 days", "format": "functional, organism-based", "conditions": "time 30.0 day"}, "[30]": {"assay": "Apparent permeability of the compound across apical to basolateral side in human Caco-2 cells", "format": "ADME, cell-based"}}, "note": "Active and inactive are the calls of the source. The calls are words filed in the database; no cut-off is given here."}
{"smiles": "CC(C)CNc1ccnc(NCc2csc(-c3ccccc3)n2)n1", "values": [{"measurement": "Activity", "setting": "JIMT-1 [1]", "result": "Active"}, {"measurement": "IC50", "setting": "JIMT-1 [2]", "result": 1800, "unit": "nM"}, {"measurement": "Activity", "setting": "JIMT-1 [3]", "result": "Active"}, {"measurement": "IC50", "setting": "MDA-MB-436", "result": 4140, "unit": "nM"}, {"measurement": "Activity", "setting": "JIMT-1 [4]", "result": "Active"}, {"measurement": "IC50", "setting": "BT-474", "result": 3730, "unit": "nM"}, {"measurement": "IC50", "setting": "MDA-MB-157", "result": 1820, "unit": "nM"}, {"measurement": "IC50", "setting": "MCF-12A", "result": 3.46, "unit": "µM"}, {"measurement": "Activity", "setting": "JIMT-1 [5]", "result": "Active"}]}
{"smiles": "COc1ccc(-c2cc(Nc3ccnc(N4CCOCC4)n3)on2)cc1", "values": [{"measurement": "Activity", "setting": "[6]", "result": "Non-Toxic"}, {"measurement": "Activity", "setting": "[7]", "result": "Non-Toxic"}, {"measurement": "solubility kinetic at 2 h", "setting": "[8]", "result": "< 1", "unit": "µM"}, {"measurement": "PPB", "setting": "[9]", "result": 1.13, "unit": "%"}, {"measurement": "Activity", "setting": "JIMT-1 [10]", "result": "Dose-Dependent Effect"}, {"measurement": "Papp B→A", "setting": "[11]", "result": 24.1, "unit": "×10⁻⁶ cm/s"}, {"measurement": "Activity", "setting": "JIMT-1 [12]", "result": "Dose-Dependent Effect"}, {"measurement": "Activity", "setting": "JIMT-1 [13]", "result": "Active"}, {"measurement": "Activity", "setting": "JIMT-1 [14]", "result": "Dose-Dependent Effect"}, {"measurement": "microsomal CLint", "setting": "[15]", "result": 329, "unit": "µL/min/mg"}, {"measurement": "Activity", "setting": "JIMT-1 [16]", "result": "Dose-Dependent Effect"}, {"measurement": "Activity", "setting": "JIMT-1 [17]", "result": "Active"}, {"measurement": "IC50", "setting": "MDA-MB-436", "result": 146, "unit": "nM"}, {"measurement": "half-life", "setting": "[18]", "result": 5, "unit": "min"}, {"measurement": "half-life", "setting": "[19]", "result": 12, "unit": "min"}, {"measurement": "Activity", "setting": "JIMT-1 [20]", "result": "Active"}, {"measurement": "Activity", "setting": "JIMT-1 [21]", "result": "Active"}, {"measurement": "Activity", "setting": "JIMT-1 [22]", "result": "Active"}, {"measurement": "logD", "setting": "[23]", "result": 2.31}, {"measurement": "microsomal CLint", "setting": "[24]", "result": 118, "unit": "µL/min/mg"}, {"measurement": "PPB", "setting": "[25]", "result": 98.87, "unit": "%"}, {"measurement": "Activity", "setting": "JIMT-1 [26]", "result": "Dose-Dependent Effect"}, {"measurement": "Activity", "setting": "[27]", "result": "Non-Toxic"}, {"measurement": "IC50", "setting": "BT-474", "result": 370, "unit": "nM"}, {"measurement": "Activity", "setting": "[28]", "result": "Non-Toxic"}, {"measurement": "Activity", "setting": "JIMT-1 [29]", "result": "Active"}, {"measurement": "Papp A→B", "setting": "[30]", "result": 19.1, "unit": "×10⁻⁶ cm/s"}, {"measurement": "IC50", "setting": "MDA-MB-157", "result": 330, "unit": "nM"}, {"measurement": "IC50", "setting": "MCF-12A", "result": "> 10", "unit": "µM"}]}
{"smiles": "CCN(Cc1ccncc1)Cc1c(O)ccc2c(-c3cc4ccccc4oc3=O)cc(=O)oc12", "values": [{"measurement": "Activity", "setting": "JIMT-1 [1]", "result": "Active"}, {"measurement": "IC50", "setting": "JIMT-1 [2]", "result": 1150, "unit": "nM"}, {"measurement": "Activity", "setting": "JIMT-1 [3]", "result": "Active"}, {"measurement": "IC50", "setting": "MDA-MB-436", "result": 1300, "unit": "nM"}, {"measurement": "Activity", "setting": "JIMT-1 [4]", "result": "Active"}, {"measurement": "IC50", "setting": "BT-474", "result": 990, "unit": "nM"}, {"measurement": "IC50", "setting": "MDA-MB-157", "result": 1820, "unit": "nM"}, {"measurement": "IC50", "setting": "MCF-12A", "result": "> 10", "unit": "µM"}, {"measurement": "Activity", "setting": "JIMT-1 [5]", "result": "Active"}]}
